Test results from PMC4667793 (Journal of medicinal chemistry, 2015).
Values joined by “and” are separate entries in the source; they are usually repeats but may differ in a detail not shown here. Identical values can stand only once. Counter-ions that a name gives are not always drawn.

How the values were obtained:
[1] = system: MDR-TB and XDR-TB strains; conditions: ten MDR-TB and XDR-TB strains; cited from earlier work
MtBPL [2] = biological target: T1, MtBPL (Mycobacterium tuberculosis, UniProt I6YFP0); conditions: for -TΔS: calculated from ΔG (displacement) and ΔH (direct titration); for ΔH: direct titration ITC, 25 °C
T1 sequence (I6YFP0 whole entry, looked up): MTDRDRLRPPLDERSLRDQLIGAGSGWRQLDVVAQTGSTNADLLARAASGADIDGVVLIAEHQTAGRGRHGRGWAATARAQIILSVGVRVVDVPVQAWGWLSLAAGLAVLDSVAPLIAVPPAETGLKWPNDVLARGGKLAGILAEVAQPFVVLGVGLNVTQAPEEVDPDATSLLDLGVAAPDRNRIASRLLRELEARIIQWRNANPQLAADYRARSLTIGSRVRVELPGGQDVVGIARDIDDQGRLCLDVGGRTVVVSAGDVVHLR

MtBPL [3] = biological target: T1, MtBPL; conditions: for ΔG: from K of displacement ITC, 298 K
MtBPL [4] = biological target: T1, MtBPL; assay: biochemical; conditions: read-out: ΔTm
M. tuberculosis H37Rv = assay: microbe, parasite or virus in culture; conditions: Mycobacterium tuberculosis
[5] = cyclonucleoside formation or decomposition at room temperature
MtBPL [6] = biological target: T1, MtBPL; assay: biochemical

| SMILES | MIC [1] [µM] | -TΔS (MtBPL [2]) [kcal/mol] | ΔH (MtBPL [2]) | ΔG (MtBPL [3]) | ΔTm at 43 µM (MtBPL [4]) [°C] | MIC90 (M. tuberculosis H37Rv) [µM] | fold more potent than 14 (KD) (MtBPL [3]) [fold] | chemical stability [5] | Kd (MtBPL [6]) [nM] |
| --- | --- | --- | --- | --- | --- | --- | --- | --- | --- |
| Nc1ncnc2c1ncn2[C@@H]1O[C@H](CNS(=O)(=O)NC(=O)CCCC[C@@H]2SC[C@@H]3NC(=O)N[C@@H]32)[C@@H](O)[C@H]1O [Compound 14, 5′-[N-(D-biotinoyl)sulfamoyl]amino-5′-deoxyadenosine triethylammonium salt] | 0.16 to 0.625 | 6.6 ± 0.1 | -18.9 ± 0.1 kcal/mol |  |  |  |  |  |  |
| CCN(CC)CC.Nc1ncnc2c1ncn2[C@@H]1C[C@H](CNS(=O)(=O)NC(=O)CCCC[C@@H]2SC[C@@H]3NC(=O)N[C@@H]32)[C@@H](O)[C@H]1O [Compound 28] |  | 7.8 ± 0.2 | -20.2 ± 0.2 kcal/mol | -12.4 kcal/mol and -12.4 ± 0.0 kcal/mol |  |  |  |  |  |
| CCN(CC)CC.Nc1ncnc2c1ncn2[C@H]1C=C[C@@H](CNS(=O)(=O)NC(=O)CCCC[C@@H]2SC[C@@H]3NC(=O)N[C@@H]32)C1 [Compound 34] |  | 10.3 ± 0.2 | -22.1 ± 0.2 kcal/mol | -11.8 ± 0.2 kcal/mol |  |  |  |  |  |
| CCN(CC)CC.Nc1ncnc2c1ncn2[C@H]1CC[C@@H](CNS(=O)(=O)NC(=O)CCCC[C@@H]2SC[C@@H]3NC(=O)N[C@@H]32)C1 [Compound 36] |  | 10.7 ± 0.4 | -23.5 ± 0.4 kcal/mol | -12.6 ± 0.2 kcal/mol |  |  |  |  |  |
| CCN(CC)CC.[N-]=[N+]=N[C@@H]1[C@H](O)[C@@H](CNS(=O)(=O)NC(=O)CCCC[C@@H]2SC[C@@H]3NC(=O)N[C@@H]32)O[C@H]1n1cnc2c(N)ncnc21 [Compound 46] |  | 10.9 ± 0.3 | -23.2 ± 0.2 kcal/mol | -12.3 ± 0.6 kcal/mol |  |  |  |  |  |
| CCN(CC)CC.Nc1ncnc2c1ncn2[C@@H]1O[C@H](CNS(=O)(=O)NC(=O)CCCC[C@@H]2SC[C@@H]3NC(=O)N[C@@H]32)[C@@H](O)[C@H]1N [Compound 47] |  | 6.5 ± 0.2 | -19.1 ± 0.1 kcal/mol | -12.6 ± 1.0 kcal/mol |  |  |  |  |  |
| [N-]=[N+]=N[C@H]1[C@H](O)[C@@H](COS(=O)(=O)NC(=O)CCCC[C@@H]2SC[C@@H]3NC(=O)N[C@@H]32)O[C@H]1n1cnc2c(N)ncnc21 [Compound 57, 9-{2′-Azido-5′-O-[N-(D-biotinoyl)sulfamoyl]-2′-deoxy-β-D-arabinofuranosyl}adenine triethylammonium salt] |  | 14.9 ± 0.1 |  | -14.4 ± 0.2 kcal/mol | 17 ± 1 | > 100 | 32 | resisted any cyclonucleoside formation | 0.027 |
| CCN(CC)CC.Nc1ncnc2c1ncn2[C@@H]1O[C@H](CNS(=O)(=O)NC(=O)CCCC[C@@H]2SC[C@@H]3NC(=O)N[C@@H]32)[C@@H](O)[C@H]1F [Compound 63, 5′-[N-(D-Biotinoyl)sulfamoyl]amino-2′,5′-dideoxy-2′-fluoroadenosine triethylammonium salt] |  | 11.8 ± 0.5 | -24.3 kcal/mol and -24.3 ± 0.5 kcal/mol | -12.6 ± 0.3 kcal/mol |  |  |  |  |  |
| CCN(CC)CC.Nc1ncnc2c1ncn2[C@@H]1O[C@H](COS(=O)(=O)NC(=O)CCCC[C@@H]2SC[C@@H]3NC(=O)N[C@@H]32)[C@@H](O)[C@@H]1F [Compound 69, 9-{5′-O-[N-(D-Biotinoyl)sulfamoyl]-2′-deoxy-2′-fluoro-β-D-arabinofuranosyl}adenine triethylammonium salt] |  | 14.7 ± 0.5 | -28.4 kcal/mol and -28.4 ± 0.6 kcal/mol | -13.4 ± 0.0 kcal/mol |  |  |  | resisted any cyclonucleoside formation |  |
| CCN(CC)CC.C[C@@]1(O)[C@H](O)[C@@H](COS(=O)(=O)NC(=O)CCCC[C@@H]2SC[C@@H]3NC(=O)N[C@@H]32)O[C@H]1n1cnc2c(N)ncnc21 [Compound 73, 5′-O-[N-(D-Biotinoyl)sulfamoyl]-β-2'-methyladenosine triethylammonium salt] |  | 8.1 ± 0.5 | -20.3 ± 0.4 kcal/mol | -12.4 ± 0.4 kcal/mol |  |  |  | resisted any cyclonucleoside formation |  |
| CCN(CC)CC.Nc1ncnc2c1ncn2[C@H]1CNC[C@@H](COS(=O)(=O)NC(=O)CCCC[C@@H]2SC[C@@H]3NC(=O)N[C@@H]32)O1 [Compound 82, (2′R,6′S)-9-[6′-({[N-(D-Biotinoyl)sulfamoyl]oxy}methyl)morpholin-2′-yl]adenine triethylammonium salt] |  | 5.9 ± 0.1 | -18.8 ± 0.0 kcal/mol | -12.9 ± 0.9 kcal/mol |  |  |  |  |  |
| CCN(CC)CC.Nc1ncnc2c1ncn2[C@@H]1O[C@H](CNS(=O)(=O)NC(=O)CCCC[C@@H]2SC[C@@H]3NC(=O)N[C@@H]32)C[C@H]1O [Compound 87, 5′-[N-(D-Biotinoyl)sulfamoyl]amino-3′,5′-dideoxyadenosine triethylammonium salt] |  | 8.8 ± 0.6 | -21.4 ± 0.5 kcal/mol | -12.6 ± 0.1 kcal/mol |  |  |  |  |  |
